The source of these data is paper PMC10547880, “Synthesis and biological evaluation of novel 1,2,3-triazole hybrids of cabotegravir: identification of potent antitumor activity against lung cancer” (Frontiers in Pharmacology, 2023).

Structures are written as SMILES.

One data set has as its system H460 cells. Briefly: CCK8 cell viability and IC50 measurement, H460. It is filed as cell-based, Human. To be noted: H460, 25 μM, 48 h. The procedure:
(§1) Human lung cancer cell line H460 and H1299, human liver normal cell line LO2 were bought from ATCC. DMEM or RPMI 1640 was used as the cell culture medium with 10% FBS and 1% penicillin/streptomycin. Cells were maintained in an incubator with 37°C humidified atmosphere and 5% CO2.
(§2) Cell viability and IC50 values were determined using the CCK8 assay kit. Cells were seeded at a density of 5 × 10^3 cells per well in a 96-well plate. After overnight adhesion, 25 μM of compounds or vehicle control DMSO which all dissolved in the culture medium were added to cells and cultured for 48 h or 72 h. CCK8 reagent, dissolved in the medium, was then added to cells and incubated for 1 h. The absorbance at 450 nm was measured using a microplate spectrophotometer (Thermo). Cell viability was calculated, with the untreated group taken as 100%. For IC50 values determination, different concentrations (0, 0.4 μM, 2 μM, 10 μM, 20 μM, 50 μM) of compounds were added to cells for 72 h. Subsequent CCK8 measurement allowed the calculation of inhibition percentage based on cell viability. The IC50 values were computed by the prism statistical software. The CCK-8 assay was conducted three times and the repetitions in each time were at least three. All the values were expressed as Mean ± SD, p < 0.05 was considered statistically significant.
(§3) In order to assess the potential cytotoxicity of the synthesized compounds, we selected two types of human non-small-cell lung cancer cell line, H460 and H1299. Cell viability and cytotoxicity were evaluated using the CCK8 assay ([Xu et al., 2018]). The cells were treated with 25 μM of compounds 5a-5s and 6a-6i for 48h and 72 h. […] In contrast, no compounds managed to reduce H1299 cell viability to less than 50%, yet compounds 5i, 5m, 6h and 6i achieved cell viability rates below 70%. […] It is worth noting that minimal effects on the cell viability of the normal cell line LO2 were observed when exposed to these compounds. Further, we determined the half-maximal inhibitory concentration (IC50) of selected compounds against H460 cells, the results of which were summarized in Table 3.
Turning to `COc1c2n(cc(C(=O)Nc3cccc(-c4cn(-c5ccccc5Br)nn4)c3)c1=O)CC1OCC(C)N1C2=O` (stereo not drawn) [Compound 5m], the Cell viability worked out at 96.50%.
With `COc1c2n(cc(C(=O)Nc3cccc(-c4cn(-c5ccc(F)cc5)nn4)c3)c1=O)CC1OCC(C)N1C2=O` (stereo not drawn) [Compound 5n], the Cell viability came out at 99.22%.
`COc1c2n(cc(C(=O)Nc3cccc(-c4cn(-c5ccccc5I)nn4)c3)c1=O)CC1OCC(C)N1C2=O` (stereo not drawn) [Compound 5o]: the Cell viability was found to be 101.09%.
Same read-out and setting: the figure for `COc1c2n(cc(C(=O)Nc3cccc(-c4cn(-c5ccccc5)nn4)c3)c1=O)CC1OCC(C)N1C2=O` (stereo not drawn) [Compound 5p] is 88.36%; for `COc1c2n(cc(C(=O)Nc3cccc(-c4cn(-c5cccc(Cl)c5)nn4)c3)c1=O)CC1OCC(C)N1C2=O` (stereo not drawn) [Compound 5q] it is 99.40%; for `COc1c2n(cc(C(=O)Nc3cccc(-c4cn(-c5cccc(Br)c5)nn4)c3)c1=O)CC1OCC(C)N1C2=O` (stereo not drawn) [Compound 5r] it is 99.03%.
On the same count and under the same terms, with `COc1c2n(cc(C(=O)Nc3cccc(-c4cn(-c5ccccc5Cl)nn4)c3)c1=O)CC1OCC(C)N1C2=O` (stereo not drawn) [Compound 5s] the figure was 71.73%; with `COc1c2n(cc(C(=O)Nc3cccc(-c4cn(Cc5ccccc5)nn4)c3)c1=O)CC1OCC(C)N1C2=O` (stereo not drawn) [Compound 6a], 99.81%.
As to `COc1c2n(cc(C(=O)Nc3cccc(-c4cn(Cc5ccccc5Br)nn4)c3)c1=O)CC1OCC(C)N1C2=O` (stereo not drawn) [Compound 6b], the Cell viability is given as 51.88%.

The data set is the same for the next values; noted with them: H460, 25 μM, 72 h.
For `COc1c2n(cc(C(=O)Nc3cccc(-c4cn(-c5ccccc5Br)nn4)c3)c1=O)CC1OCC(C)N1C2=O` (stereo not drawn) [Compound 5m], the Cell viability is recorded as 94.59%.
Consider `COc1c2n(cc(C(=O)Nc3cccc(-c4cn(-c5ccc(F)cc5)nn4)c3)c1=O)CC1OCC(C)N1C2=O` (stereo not drawn) [Compound 5n], for which the Cell viability amounted to 105.04%.
The same measure, in the same setting: with `COc1c2n(cc(C(=O)Nc3cccc(-c4cn(-c5ccccc5I)nn4)c3)c1=O)CC1OCC(C)N1C2=O` (stereo not drawn) [Compound 5o] the figure was 104.29%; with `COc1c2n(cc(C(=O)Nc3cccc(-c4cn(-c5ccccc5)nn4)c3)c1=O)CC1OCC(C)N1C2=O` (stereo not drawn) [Compound 5p], 104.18%.
The same measure, in the same setting: the figure for `COc1c2n(cc(C(=O)Nc3cccc(-c4cn(-c5cccc(Cl)c5)nn4)c3)c1=O)CC1OCC(C)N1C2=O` (stereo not drawn) [Compound 5q] is 104.14%.
In the case of `COc1c2n(cc(C(=O)Nc3cccc(-c4cn(-c5cccc(Br)c5)nn4)c3)c1=O)CC1OCC(C)N1C2=O` (stereo not drawn) [Compound 5r], the Cell viability was 107.13%.
Turning to `COc1c2n(cc(C(=O)Nc3cccc(-c4cn(Cc5ccccc5)nn4)c3)c1=O)CC1OCC(C)N1C2=O` (stereo not drawn) [Compound 6a], the Cell viability is 118.33%.

The data set is the same for the next values; noted with them: H460, 72-h treatment.
Consider `COc1c2n(cc(C(=O)Nc3cccc(-c4cn(-c5ccccc5C)nn4)c3)c1=O)CC1OCC(C)N1C2=O` (stereo not drawn) [Compound 5c], for which the “cell proliferation inhibition rate” value is given as “exceed 50%”.
Still for that read-out and setting: the entry for `COc1c2n(cc(C(=O)Nc3cccc(-c4cn(-c5ccccc5Cl)nn4)c3)c1=O)CC1OCC(C)N1C2=O` (stereo not drawn) [Compound 5s] is “exceed 50%”; for `COc1c2n(cc(C(=O)Nc3cccc(-c4cn(Cc5ccccc5Br)nn4)c3)c1=O)CC1OCC(C)N1C2=O` (stereo not drawn) [Compound 6b] it is “exceed 50%”.

Still in this data set, the particulars now being: H460, 72 h, CCK8.
What is called IC50 is the concentration at which inhibition is half-maximal. Low values mean inhibition by little substance, high ones a need for much substance. `COc1c2n(cc(C(=O)Nc3cccc(-c4cn(-c5ccccc5C)nn4)c3)c1=O)CC1OCC(C)N1C2=O` (stereo not drawn) [Compound 5c] came in with a half-inhibitory concentration (IC50) of 9.65 ± 0.04 µM.
In turn, `COc1c2n(cc(C(=O)Nc3cccc(-c4cn(-c5ccccc5Br)nn4)c3)c1=O)CC1OCC(C)N1C2=O` (stereo not drawn) [Compound 5m] registered an IC50 above 50 µM.
The same measure, in the same setting: with `COc1c2n(cc(C(=O)Nc3cccc(-c4cn(-c5cccc(Cl)c5)nn4)c3)c1=O)CC1OCC(C)N1C2=O` (stereo not drawn) [Compound 5q] the figure was above 100 µM; with `COc1c2n(cc(C(=O)Nc3cccc(-c4cn(-c5ccccc5Cl)nn4)c3)c1=O)CC1OCC(C)N1C2=O` (stereo not drawn) [Compound 5s], 13.4 ± 4.54 µM.
Take `COc1c2n(cc(C(=O)Nc3cccc(-c4cn(Cc5ccccc5)nn4)c3)c1=O)CC1OCC(C)N1C2=O` (stereo not drawn) [Compound 6a]: the IC50 is above 50 µM.
The molecule `COc1c2n(cc(C(=O)Nc3cccc(-c4cn(Cc5ccccc5Br)nn4)c3)c1=O)CC1OCC(C)N1C2=O` (stereo not drawn) [Compound 6b] came in with an IC50 of 30.5 ± 2.18 µM.

A further data set relates to LO2 cells. Briefly: CCK8 cell viability, normal cell line LO2. It is filed as cell-based, Human. Particulars: LO2 normal liver cells, 25 μM, 72 h. How it is done: as §1, §2, §3
As to `COc1c2n(cc(C(=O)Nc3cccc(-c4cn(-c5ccccc5C)nn4)c3)c1=O)CC1OCC(C)N1C2=O` (stereo not drawn) [Compound 5c], the Cell viability is 73.79%.
As to `COc1c2n(cc(C(=O)Nc3cccc(-c4cn(-c5ccccc5Br)nn4)c3)c1=O)CC1OCC(C)N1C2=O` (stereo not drawn) [Compound 5m], the Cell viability was determined as 111.3%.
With `COc1c2n(cc(C(=O)Nc3cccc(-c4cn(-c5ccc(F)cc5)nn4)c3)c1=O)CC1OCC(C)N1C2=O` (stereo not drawn) [Compound 5n], the Cell viability turned out to be 127.86%.
Same read-out and setting: with `COc1c2n(cc(C(=O)Nc3cccc(-c4cn(-c5ccccc5I)nn4)c3)c1=O)CC1OCC(C)N1C2=O` (stereo not drawn) [Compound 5o] the figure was 100.11%; with `COc1c2n(cc(C(=O)Nc3cccc(-c4cn(-c5ccccc5)nn4)c3)c1=O)CC1OCC(C)N1C2=O` (stereo not drawn) [Compound 5p], 109.72%; with `COc1c2n(cc(C(=O)Nc3cccc(-c4cn(-c5cccc(Cl)c5)nn4)c3)c1=O)CC1OCC(C)N1C2=O` (stereo not drawn) [Compound 5q], 125.35%.
Same read-out and setting: the figure for `COc1c2n(cc(C(=O)Nc3cccc(-c4cn(-c5cccc(Br)c5)nn4)c3)c1=O)CC1OCC(C)N1C2=O` (stereo not drawn) [Compound 5r] is 127.81%; for `COc1c2n(cc(C(=O)Nc3cccc(-c4cn(-c5ccccc5Cl)nn4)c3)c1=O)CC1OCC(C)N1C2=O` (stereo not drawn) [Compound 5s] it is 122.75%.
Same read-out and setting: with `COc1c2n(cc(C(=O)Nc3cccc(-c4cn(Cc5ccccc5)nn4)c3)c1=O)CC1OCC(C)N1C2=O` (stereo not drawn) [Compound 6a] the figure was 127.44%.
`COc1c2n(cc(C(=O)Nc3cccc(-c4cn(Cc5ccccc5Br)nn4)c3)c1=O)CC1OCC(C)N1C2=O` (stereo not drawn) [Compound 6b]: the Cell viability is listed as 126.52%.

Another data set deals with H1299 cells. Briefly: CCK8 cell viability, H1299. It counts as cell-based, Human. To be noted: H1299, 25 μM, 48 h. The procedure: as §1, §2, §3
Regarding `COc1c2n(cc(C(=O)Nc3cccc(-c4cn(-c5ccccc5C)nn4)c3)c1=O)CC1OCC(C)N1C2=O` (stereo not drawn) [Compound 5c], the Cell viability is 94.81%.
In the case of `COc1c2n(cc(C(=O)Nc3cccc(-c4cn(-c5ccccc5Br)nn4)c3)c1=O)CC1OCC(C)N1C2=O` (stereo not drawn) [Compound 5m], the Cell viability is 112.42%.
As to `COc1c2n(cc(C(=O)Nc3cccc(-c4cn(-c5ccc(F)cc5)nn4)c3)c1=O)CC1OCC(C)N1C2=O` (stereo not drawn) [Compound 5n], the Cell viability is reported as 115.05%.
As to `COc1c2n(cc(C(=O)Nc3cccc(-c4cn(-c5ccccc5I)nn4)c3)c1=O)CC1OCC(C)N1C2=O` (stereo not drawn) [Compound 5o], the Cell viability is on record as 120.83%.
Still for that read-out and setting: with `COc1c2n(cc(C(=O)Nc3cccc(-c4cn(-c5ccccc5)nn4)c3)c1=O)CC1OCC(C)N1C2=O` (stereo not drawn) [Compound 5p] the figure was 114.26%; with `COc1c2n(cc(C(=O)Nc3cccc(-c4cn(-c5cccc(Cl)c5)nn4)c3)c1=O)CC1OCC(C)N1C2=O` (stereo not drawn) [Compound 5q], 107.23%; with `COc1c2n(cc(C(=O)Nc3cccc(-c4cn(-c5cccc(Br)c5)nn4)c3)c1=O)CC1OCC(C)N1C2=O` (stereo not drawn) [Compound 5r], 117.54%.
In the case of `COc1c2n(cc(C(=O)Nc3cccc(-c4cn(-c5ccccc5Cl)nn4)c3)c1=O)CC1OCC(C)N1C2=O` (stereo not drawn) [Compound 5s], the Cell viability is 127.14%.
Same read-out and setting: the figure for `COc1c2n(cc(C(=O)Nc3cccc(-c4cn(Cc5ccccc5)nn4)c3)c1=O)CC1OCC(C)N1C2=O` (stereo not drawn) [Compound 6a] is 118.73%; for `COc1c2n(cc(C(=O)Nc3cccc(-c4cn(Cc5ccccc5Br)nn4)c3)c1=O)CC1OCC(C)N1C2=O` (stereo not drawn) [Compound 6b] it is 104.60%.

Staying with this data set, now noted: H1299, 25 μM, 72 h.
With `COc1c2n(cc(C(=O)Nc3cccc(-c4cn(-c5ccccc5C)nn4)c3)c1=O)CC1OCC(C)N1C2=O` (stereo not drawn) [Compound 5c], the Cell viability amounted to 83.51%.
For `COc1c2n(cc(C(=O)Nc3cccc(-c4cn(-c5ccc(F)cc5)nn4)c3)c1=O)CC1OCC(C)N1C2=O` (stereo not drawn) [Compound 5n], the Cell viability came out at 91.74%.
On the same count and under the same terms, with `COc1c2n(cc(C(=O)Nc3cccc(-c4cn(-c5ccccc5I)nn4)c3)c1=O)CC1OCC(C)N1C2=O` (stereo not drawn) [Compound 5o] the figure was 86.67%; with `COc1c2n(cc(C(=O)Nc3cccc(-c4cn(-c5ccccc5)nn4)c3)c1=O)CC1OCC(C)N1C2=O` (stereo not drawn) [Compound 5p], 87.16%; with `COc1c2n(cc(C(=O)Nc3cccc(-c4cn(-c5cccc(Cl)c5)nn4)c3)c1=O)CC1OCC(C)N1C2=O` (stereo not drawn) [Compound 5q], 88.40%.
On the same count and under the same terms, with `COc1c2n(cc(C(=O)Nc3cccc(-c4cn(-c5cccc(Br)c5)nn4)c3)c1=O)CC1OCC(C)N1C2=O` (stereo not drawn) [Compound 5r] the figure was 89.82%; with `COc1c2n(cc(C(=O)Nc3cccc(-c4cn(-c5ccccc5Cl)nn4)c3)c1=O)CC1OCC(C)N1C2=O` (stereo not drawn) [Compound 5s], 97.37%; with `COc1c2n(cc(C(=O)Nc3cccc(-c4cn(Cc5ccccc5)nn4)c3)c1=O)CC1OCC(C)N1C2=O` (stereo not drawn) [Compound 6a], 101.39%.
As to `COc1c2n(cc(C(=O)Nc3cccc(-c4cn(Cc5ccccc5Br)nn4)c3)c1=O)CC1OCC(C)N1C2=O` (stereo not drawn) [Compound 6b], the Cell viability was 101.92%.
